The values below come from patent publication US9981940B2, “Aryl sulfide derivatives and aryl sulfoxide derivatives as acaricides and insecticides” (BAYER CROPSCIENCE AKTIENGESELLSCHAFT, priority 2013, dated 2018).

Data set [1] deals with Phaedon cochleariae. As to the kind of experiment: Phaedon cochleariae spray test (PHAECO). In kind it is in vivo. The following applies: after 7 days; for pest or weed control at 500 g/ha: Phaedon cochleariae, 168 h, read-out: efficacy. As for the experimental part: Phaedon cochleariae—Spray Test (PHAECO)
• Solvent: 78.0 parts by weight of acetone • 1.5 parts by weight of dimethylformamide • Emulsifier: 0.5 part by weight of alkylaryl polyglycol ether
To produce an appropriate active ingredient formulation, 1 part by weight of active ingredient is mixed with the specified amounts of solvent and emulsifier, and the concentrate is diluted to the desired concentration with emulsifier-containing water.
Discs of Chinese cabbage leaves (Brassica pekinensis) are sprayed with an active ingredient formulation of the desired concentration and, after drying, populated with larvae of the mustard beetle (Phaedon cochleariae).
After 7 days, the efficacy in % is determined 100% means that all beetle larvae have been killed; 0% means that none of the beetle larvae have been killed.

In data set [2] the test system is Tetranychus urticae. As to the kind of experiment: Tetranychus urticae spray test, OP-resistant (TETRUR). It is filed as in vivo. The conditions noted are these: application rate of 500 g/ha, after 6 days; for pest or weed control at 500 g/ha: Tetranychus urticae, 144 h, read-out: efficacy. The gist of the method:
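Mortality as % efficacy (0% = no mites killed) read 6 days after spraying. Formulation: active ingredient in acetone/dimethylformamide plus emulsifier, diluted with emulsifier-containing water, applied to Phaseolus vulgaris leaf discs carrying every life stage of OP-resistant spider mites.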

Data set [3] in a line: log P by HPLC (OECD Guideline 117), method [a] acidic range. In kind it is physicochemical. The conditions noted are these: for chromatographic logP: reversed-phase C18 HPLC column, acidic range; for logP[a]: HPLC, method [a] acidic range. As for the experimental part: (§1) The log P values were determined analogously to OECD Guideline 117 (EC Directive 92/69/EEC) by HPLC (high-performance liquid chromatography) using reversed-phase columns (C 18), by the following methods:
[a] The LC-MS determination in the acidic range is effected at pH 2.7 with 0.1% aqueous formic acid and acetonitrile (contains 0.1% formic acid) as eluents; linear gradient from 10% acetonitrile to 95% acetonitrile.

A short description of data set [4]: log P by HPLC (OECD Guideline 117), method [b] neutral range. In kind it is physicochemical. The following applies: HPLC; for chromatographic logP: reversed-phase C18 HPLC column, neutral range, pH 7.8; for logP[b]: method [b] neutral range. The method, then: as §1
[b] The LC-MS determination in the neutral range is effected at pH 7.8 with 0.001 molar aqueous ammonium hydrogencarbonate solution and acetonitrile as eluents; linear gradient from 10% acetonitrile to 95% acetonitrile.

The mark [5] stands for this setting: pH 2.7, HPLC method [a], read-out: logP[a].
Where [6] appears, read: pH 2.7, HPLC, pH 2.7, read-out: log P[a].

On to `Cc1cc(F)c(-n2nc(C)n(C)c2=O)cc1[S+]([O-])CC(F)(F)F` (stereo not drawn) [Example 11, 2-{2-Fluoro-4-methyl-5-[(2,2,2-trifluoroethyl)sulphinyl]phenyl}-4,5-dimethyl-2,4-dihydro-3H-1,2,4-triazol-3-one], for which the pest or weed control at 500 g/ha in data set [1] (application rate of 500 g/ha) and in data set [2] was 100% each time. For the same molecule, the values for the chromatographic logP in data set [3] (setting [5]), in data set [3] (setting [6]) and in data set [4] were 1.57, 1.57 and 1.5, respectively.

As for `COc1nn(-c2cc(SCC(F)(F)F)c(C)cc2F)c(=O)n1C` [Example 93], the figures for the efficacy in data set [1] (application rate of 500 g/ha) and in data set [2] were 100% and 90%, respectively. Moreover, the “logP[a]” value in data set [3] turned out to be 2.78. For the same molecule, the “logP[b]” value in data set [4] was 2.73.

On to `Cc1cc(F)c(-n2nnn(C)c2=S)cc1SCC(F)(F)F` [Example 447, 1-{2-Fluoro-4-methyl-5-[(2,2,2-trifluoroethyl)sulphanyl]phenyl}-4-methyl-1,4-dihydro-5H-tetrazole-5-thione], for which the pest or weed control at 500 g/ha in data set [1] (application rate of 500 g/ha) and in data set [2] was 100% throughout. Also, the chromatographic logP is 3.51 in data set [3] (setting [5]), 3.51 in data set [3] (setting [6]) and 3.49 in data set [4].

`Cc1cc(F)c(-n2nc(NC(C)C)n(N)c2=O)cc1[S+]([O-])CC(F)(F)F` (stereo not drawn) [Example 225]: the efficacy in data set [1] (application rate of 500 g/ha) and in data set [2] was 100% each time. Moreover, in data set [3], the “logP[a]” value came out at 1.87. Besides, the “logP[b]” value in data set [4] was 1.83.

Take `C=CCn1c(SC)nn(-c2cc([S+]([O-])CC(F)(F)F)c(C)cc2F)c1=O` (stereo not drawn) [Example 272]: the efficacy in data set [1] (application rate of 500 g/ha) is reported as 83%; in data set [2], 100%. In addition, the “logP[a]” value in data set [3] is reported as 2.54. Moreover, the “logP[b]” value in data set [4] is reported as 2.48.

For the molecule `Cc1cc(F)c(-n2nn[nH]c2=O)cc1[S+]([O-])CC(F)(F)F` (stereo not drawn) [Example 303, 1-{2-Fluoro-4-methyl-5-[(2,2,2-trifluoroethyl)sulphinyl]phenyl}-1,4-dihydro-5H-tetrazol-5-one], the pest or weed control at 500 g/ha in data set [1] (application rate of 500 g/ha) came to 100%. The chromatographic logP in data set [3] (setting [5]) is 1.59; in data set [3] (setting [6]), 1.59; in data set [4] it was 0.37.

With `C=CCn1c(OC)nn(-c2cc([S+]([O-])CC(F)(F)F)c(C)cc2F)c1=O` (racemic) [Example 183], the efficacy in data set [1] (application rate of 500 g/ha) and in data set [2] was 100% throughout. Moreover, the “logP[a]” value in data set [3] was determined as 2.24. Besides, in data set [4], the “logP[b]” value was determined as 2.21.

As for `Cc1cc(F)c(-n2ncn(-c3ccc(F)cc3)c2=O)cc1SCC(F)(F)F` [Example 349], the figures for the efficacy in data set [1] (application rate of 500 g/ha) and in data set [2] were 100% and 90%, respectively. In data set [3], the “logP[a]” value was found to be 3.48. The “logP[b]” value in data set [4] was 3.40.

For `C=CCn1c(OC)nn(-c2ccc(C)c(SCC(F)(F)F)c2)c1=O` [Example 176], the results for the efficacy in data set [1] (application rate of 500 g/ha) and in data set [2] were 100% and 90%, respectively. Also, the “logP[a]” value in data set [3] is 3.87. Also, the “logP[b]” value in data set [4] turned out to be 3.81.

Take `CCOC1=CC(=O)N(c2cc(SCC(F)(F)F)c(C)cc2F)C1` [Example 330]: the efficacy came to 100% in data set [1] (application rate of 500 g/ha) and 90% in data set [2]. Moreover, in data set [3], the “logP[a]” value was 3.29. The “logP[b]” value in data set [4] was found to be 3.21.

Consider `COc1nn(-c2cc([S+]([O-])CC(F)(F)F)c(C)cc2F)c(=O)n1C` (stereo not drawn) [Example 94], for which the efficacy in data set [1] (application rate of 500 g/ha) was 83%. In data set [3], the “logP[a]” value is given as 1.77. Moreover, the “logP[b]” value in data set [4] was 1.77.

As to `Cc1cc(F)c(-n2ncn(-c3ccc(F)cc3)c2=O)cc1[S+]([O-])CC(F)(F)F` (racemic) [Example 355], the efficacy is 83% in data set [1] (application rate of 500 g/ha) and 90% in data set [2]. The “logP[a]” value in data set [3] was 2.45. Further, the “logP[b]” value in data set [4] amounted to 2.41.

`COC1=CC(=O)N(c2ccc(C(F)(F)F)c(SCC(F)(F)F)c2)C1` [Example 322] gave an efficacy in data set [1] (application rate of 500 g/ha) of 100%. Further, the “logP[a]” value in data set [3] was found to be 3.31. For the same molecule, in data set [4], the “logP[b]” value is on record as 3.25.

For the molecule `Cc1cc(F)c(-n2nc(C)n(-c3ccccc3)c2=O)cc1SCC(F)(F)F` [Example 350], the figures for the efficacy in data set [1] (application rate of 500 g/ha) and in data set [2] were 83% and 100%, respectively. Moreover, the “logP[a]” value in data set [3] is reported as 3.40. The “logP[b]” value in data set [4] came to 3.34.

On to `COc1nn(-c2cc([S+]([O-])CC(F)(F)F)c(Cl)cc2F)c(=O)n1C` (stereo not drawn) [Example 98], for which the efficacy in data set [1] (application rate of 100 g/ha) was 83%; in data set [2], 100%. In data set [3], the “logP[a]” value was found to be 2.12. The “logP[b]” value in data set [4] worked out at 2.10.

For `Cc1ccc(-n2nc(OC(C)(C)C)n(C)c2=O)cc1SCC(F)(F)F` [Example 154], the efficacy was found to be 83% in data set [1] (application rate of 500 g/ha) and 100% in data set [2]. Moreover, in data set [3], the “logP[a]” value was found to be 4.55. In addition, the “logP[b]” value in data set [4] is on record as 4.45.

On to `Cc1cc(F)c(-n2ncn(-c3ccccc3)c2=O)cc1SCC(F)(F)F` [Example 351], for which the efficacy in data set [1] (application rate of 500 g/ha) and in data set [2] was 100% throughout. Moreover, in data set [3], the “logP[a]” value worked out at 3.43. In addition, the “logP[b]” value in data set [4] came to 3.36.

Consider `Cc1cc(F)c(-n2nc(C)n(C)c2=O)cc1SCC(F)(F)F` [Example 10, 2-{2-Fluoro-4-methyl-5-[(2,2,2-trifluoroethyl)sulphanyl]phenyl}-4,5-dimethyl-2,4-dihydro-3H-1,2,4-triazol-3-one], for which the results for the pest or weed control at 500 g/ha in data set [1] (application rate of 500 g/ha) and in data set [2] were 100% and 90%, respectively. The chromatographic logP in data set [3] (setting [5]) was determined as 2.42; in data set [3] (setting [6]), 2.42; in data set [4], 2.38.

`COCCOC1=CC(=O)N(c2cc(SCC(F)(F)F)c(C)cc2F)C1` [Example 328]: the results for the efficacy in data set [1] (application rate of 500 g/ha) and in data set [2] were 100% and 90%, respectively. Further, the “logP[a]” value in data set [3] is on record as 2.86. Also, the “logP[b]” value in data set [4] is 2.82.

For the molecule `Cc1cc(F)c(N2CC(OC3CCCC3)=CC2=O)cc1SCC(F)(F)F` [Example 329, 4-(Cyclopentyloxy)-1-{2-fluoro-4-methyl-5-[(2,2,2-trifluoroethyl)sulphanyl]phenyl}-1,5-dihydro-2H-pyrrol-2-one], the values for the pest or weed control at 500 g/ha in data set [1] (application rate of 500 g/ha) and in data set [2] were 100% and 90%, respectively. Besides, the chromatographic logP in data set [3] (setting [5]) was determined as 4.2; in data set [3] (setting [6]), 4.2; in data set [4] it was 4.06.

As to `CNc1nn(-c2cc([S+]([O-])CC(F)(F)F)c(C)cc2F)c(=O)n1N` (stereo not drawn) [Example 219], the efficacy in data set [1] (application rate of 500 g/ha) turned out to be 100%; in data set [2] it was 90%. Moreover, the “logP[a]” value in data set [3] came to 1.32. Besides, the “logP[b]” value in data set [4] stood at 1.29.

On to `COc1ccc(-n2nc(OC)n(C3CC3)c2=O)cc1[S+]([O-])CC(F)(F)F` (stereo not drawn) [Example 109], for which the efficacy in data set [1] (application rate of 500 g/ha) is 100%. The “logP[a]” value in data set [3] worked out at 2.34. Moreover, in data set [4], the “logP[b]” value turned out to be 2.30.

For the molecule `COc1nn(-c2ccc(C(F)(F)F)c(SCC(F)(F)F)c2)c(=O)n1C` [Example 95, 5-Methoxy-4-methyl-2-{3-[(2,2,2-trifluoroethyl)sulphanyl]-4-(trifluoromethyl)phenyl}-2,4-dihydro-3H-1,2,4-triazol-3-one], in data set [1] (application rate of 500 g/ha), the pest or weed control at 500 g/ha is 83%. In addition, the values for the chromatographic logP in data set [3] (setting [5]), in data set [3] (setting [6]) and in data set [4] were 3.74, 3.74 and 3.64, respectively.
